Source: US10959984B2, “Methods for treating cancer with RORγ inhibitors” (THE REGENTS OF THE UNIVERSITY OF CALIFORNIA, priority 2015, dated 2021)
pIC50: −log10 of the molar value. “Also recorded” adds a separate entry of the source.

Experiments:
VCaP xenograft tumors = assay: Spontaneous metastasis of VCaP xenografts (Alu-qPCR); format: in vivo, mice; details: treated 23 d
Procedure: FIGS. 28A-28C show the in vivo effects of RORγ inhibition on tumor metastasis, mouse body weight and organ weight in xenograft models. FIG. 28A: Mice bearing VCaP xenografts as in FIG. 11D, treated with vehicle, SR2211, ENZ or combination for 23 d, were assessed for spontaneous metastasis to the femur (bone marrow) and liver. Genomic DNA isolated from these sites was analyzed for metastasized cells by measuring human Alu sequence (by Alu-qPCR). FIG. 28B: Body weight of mice from different treatment groups. FIG. 28C: Weight of indicated tissues from mice treated with vehicle or SR2211 for 24 days as in FIG. 11A of C4-2B xenograft model. Significance was calculated using Student's t-test, *p=0.01, n=6.

22Rv1 xenografts = assay: 22Rv1 xenograft tumor growth; format: in vivo, mice; details: nude mice; SR2211 5 mg/kg i.p., 8k/E11 10 and 20 mg/kg i.p., five times per week (FIG. 3A)
Procedure: Four-week-old male SCID C.B17 mice (for C4-2B and VCaP) or BALB/c nu/nu athymic mice (for 22Rv11 and PC-3) were purchased from Harlan Inc. For establishing tumors, 2×10^6 cells were suspended in total of 100 μL PBS/Matrigel (1:1) and implanted subcutaneously into the dorsal flank on both sides of the mice. Animal group size of six or more was estimated to have a high statistic power, based on power calculation (http://www.biomath.info/power/) and previous studies involving the same xenograft models^34,68. When the tumor volume was approximately 80 mm^3, the mice were randomized and then treated intraperitoneally (i.p.) with 100 μl of either vehicle or RORγ antagonists SR2211, XY011/8k (in a formulation of 15% Cremophor EL, Calbiochem, 82.5% PBS, and 2.5% DMSO) for five times per week. Tumor growth was monitored by calipers with volume calculated using the equation: (π/6 (length×width2)). Body weight during the course of the study was also monitored. At the end of the studies mice were killed and tumors were dissected and weighed. Additionally, prostate, seminal vesicle, testis, kidney, heart, lung, liver, epididymal fat pad and spleen were harvested and weighed. To assess the effect of combining RORγ antagonists and ENZ on the growth of castrated-resistant VCaP xenografts (CRPC-VCaP), first, SCID C.B17 mice were injected with VCaP cells as above to establish the tumors. Then, mice bearing tumors of approximately 180 mm^3 were surgically castrated. They were then observed for tumor regression. Once tumors grew back to the pre-castration size, mice were randomized and treated with vehicle, 5 mg kg^−1 SR2211, 10 mg […] ENZ or a combination of 5 mg kg^−1 SR2211 and 10 mg kg^−1 ENZ. ENZ was given by oral gavage as previously described^68 and SR2211 was administered i.p as above. Mice were excluded from the study if bearing no tumor or tumor with size twice larger or smaller than the mean, at the time of randomization.

[1] = system: HER2-positive cells, such as SKBR3 and HCC1954; assay: CellTiter-GLO viability, HER2-positive breast cancer cells; format: cell-based, human; details: SKBR3 and HCC1954, 4 days
Procedure: (§1) For cell viability, cells were seeded in 96-well plates at 1500-2500 cells per well (optimum density for growth) in a total volume of 100 μl media. Serially diluted compounds in […] of media were added to the cells 12 hours later. After 4 days of incubation, Cell-Titer GLO reagents (Promega) were added and luminescence was measured on GLOMAX microplate luminometer (Promega), according to the manufacturer's instructions. All experimental points were set up as sextuplicate as biological replication and the entire experiments were repeated three times. The data are presented as percentage of viable cells with vehicle treated cells set as 100. The estimated in vitro IC50 values were calculated using GraphPad Prism 6 software.
(§2) Using a CellTiter-GLO assay, the viability of cells of different cancer types was measured after treatment with different concentrations of RORγ small molecule inhibitors for 4 days.

AR-negative PCa cells = assay: Prostate cancer cell growth and survival, AR-negative cells; format: cell-based, human
Procedure: as §1
(§3) For apoptosis, Terminal deoxynucleotidyl transferase-mediated dUTP nick end labeling (TUNEL) was performed by using in situ cell death detection kit (Roche) as previously described^56. The results are expressed as a percentage of apoptotic cell number/total cell number. Caspase-3/7 activity was measured using a luminescent caspase-Glo 3/7 assay kit (Promega Corporation, Madison, USA) following the manufacturer's instructions. For cell growth, cells were seeded in 6-well plates at 2×10^5 per well and treated as indicated. Total viable cell numbers were counted using a Coulter cell counter. For colony formation, 800 cells were seeded in a well of 6-well plates and cultured for 14 days with the medium changed every 3 days. When the cell clone grew visible, the medium was removed and the cells were fixed with […] formalin for 10 minutes. Then the plates were washed with PBS for two times and the cell colonies were stained with 0.2% crystal violet (in 10% formalin) for 15 minutes. The numbers of cell colonies were counted after washed 5 times by PBS. The above assays were performed in triplicates and the entire experiments were repeated three times.

AR-positive PCa cells = assay: Prostate cancer cell growth and survival (cell viability / cell growth); format: cell-based, human
Procedure: as §1, §3

[2] = system: H3K4me3 and H3K27ac at the RORE site and AR promoter; assay: ChIP-qPCR at the AR-RORE site and AR promoter; format: cell-based, human; details: C4-2B cells, 5 μM, 24 h
Procedure: ChIP-qPCR analysis was performed as described previously^49. The antibodies used for ChIP assay are AR (Santa Cruz; sc-815); RNA Pol-II (Santa cruz; sc-899); H3K4me2 (Abcam ab32356); H3K4me3 (Abcam; ab8580); H3K27ac (Abcam; ab4729); H3 (Active Motif; #39163); p300 (Santa Cruz; sc-585); SRC-1 (Santa Cruz; sc-8995); SRC-3/ACTR^64, and IgG (Santa Cruz; sc-2027). PCR primers used in the ChIP assays were listed in the Supplementary table 2. ChiPs were performed with each experimental point in triplicate, and each experiment was repeated three times.

C4-2B and 22Rv1 cells = assay: Apoptosis (caspase-3/7 activity, TUNEL); format: cell-based, human
Procedure: as §3

MCF-7-TamR cell line = assay: Growth of tamoxifen-resistant breast cancer cells; format: cell-based, human; details: MCF-7 TamR cells, in combination with tamoxifen
Procedure: as §2

LNCaP cells = assay: Cell viability (Cell-Titer GLO), 4 days; format: cell-based; details: Homo sapiens, 96 h, treated for 4 days, read-out: IC50 (growth inhibition)
Procedure: as §1

Question: Which “metastasis to femur bone and liver” value (VCaP xenograft tumors) does the source give for `OC(c1ccc(-c2ccc(CN3CCN(Cc4ccncc4)CC3)cc2)c(F)c1)(C(F)(F)F)C(F)(F)F` [SR2211, 2-Fluoro-4′-[[4-(4-pyridinylmethyl)-1-piperazinyl]methyl]-a,a-bis (trifluoromethyl)-[1,1′-biphenyl]-4-methanol] here?
Answer: strongly inhibited the metastasis to femur bone and liver

Question: What about the “growth of xenograft tumors” value (22Rv1 xenografts) of the same molecule?
Answer: strongly inhibited growth of xenograft tumors

Question: What about the “inhibition of HER2-positive cells” value [1] of the same molecule?
Answer: relatively strong inhibition

Question: And the “inhibition of cell growth and survival in AR-negative cells” value (AR-negative PCa cells)?
Answer: not in the AR-negative cells

Question: What about the “growth inhibition in other AR-positive PCa cell models” value (AR-positive PCa cells; 22Rv1, VCaP, LNCaP, LAPC4 and PC346C) of the same molecule?
Answer: strong growth inhibition

Question: What about the “inhibition of AR-positive PCa cell growth and survival” value (AR-positive PCa cells; different cell line models) of the same molecule?
Answer: potent inhibition of AR-positive PCa cell growth and survival

Question: What about the “gene activating marks H3K4me3 and H3K27ac at the RORE site and AR promoter” value [2] of the same molecule?
Answer: strongly reduced

Question: And the apoptosis (C4-2B and 22Rv1 cells)?
Answer: marked apoptosis

Question: And the “sensitization of tamoxifen-resistant breast cancer cells to tamoxifen” value (MCF-7-TamR cell line)?
Answer: able to sensitize tamoxifen-resistant breast cancer cells to tamoxifen; also recorded: sensitized MCF-7 TamR cells to tamoxifen

Question: And the pIC50 (LNCaP cells)?
Answer: 5.82
